Experiment: gradient 5% acetonitrile 3 min, to 50% in 2 min, to 85% in 15 min, held 3 min, 100 µL/min
Conditions: column: Zorbax Extend-C18 2.1 x 50 mm; eluents: water / acetonitrile, 0.1% formic acid
In short: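 The mobile phases were water and acetonitrile, each with 0.1% formic acid, pumped at 100 μL/min through a Zorbax Extend-C18 column (2.1 × 50 mm, 1.8 μm). Pure standards were injected as mixtures of ~100 molecules and detected by a quadrupole time-of-flight mass spectrometer in positive and negative ionization mode. Retention time came from computationally picked adduct peaks, each inspected by hand.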

SMILES | RP-LC retention time
COc1ccc(C)cc1NC(=O)N1CCN(c2ccc(=O)n(-c3ccc(C)cc3)n2)CC1 | 915 s
CCn1cc(S(=O)(=O)Nc2cc(Cl)ccc2OC)c2cccnc21 | 908 s
COc1cc(NC(=O)Cn2nc3nc(N4CCCC4)ccn3c2=O)cc(OC)c1 | 643 s
CN1CCN(C(=O)C2(C)CC(c3ccccc3)=NO2)CC1 (stereo unspecified) | 608 s
O=c1c2sccc2n(Cc2nc(-c3ccc(F)c(Cl)c3)no2)c(=O)n1CCc1ccccc1 | 1230 s
CC(=O)Nc1ccc(S(=O)(=O)N2CCn3cccc3C2c2ccc(F)c(F)c2)cc1 (stereo unspecified) | 857 s
Cc1sc2ccn(CC(C)C)c(=O)c2c1C(=O)NC1CCN(Cc2ccccc2)CC1 | 658 s
O=C(Nc1cccnc1)c1ccc(S(=O)(=O)NC2CC2)cc1 | 552 s
Cn1nc2n(c1=O)CCN(S(=O)(=O)c1ccccc1C(F)(F)F)CC2 | 675 s
CCN1CCN(C(=O)CCc2cc(OC)c(OC)c(OC)c2)c2cccnc21 | 613 s
Cc1c(NC(=O)c2sc3cc(F)ccc3c2Cl)c(=O)n(-c2ccccc2)n1C | 756 s
CCN1CCN(Cc2nc3cc(NC(=O)c4cccs4)ccc3n2C(C)C)CC1 | 586 s
CC(C)CCNC(=O)c1cn(C)nc1S(=O)(=O)N1CCSCC1 | 900 s
Cc1oc(C)c(S(=O)(=O)NC2CC2)c1C(=O)NCc1ccc2c(c1)OCO2 | 830 s
CCCn1cnc2cc(-c3noc(COc4cccc(C)c4)n3)ccc21 | 840 s
O=C(NC1CCCc2ccccc21)C1CCN(C(=O)C2Sc3ccccc3NC2=O)CC1 (stereo unspecified) | 793 s
CC(C)(C)C(=O)Nc1ccc(-c2nc(-c3ccccc3)co2)cc1 | 1110 s

SMILES | RP-LC retention time
CCCS(=O)(=O)c1nc2ccc(NS(=O)(=O)Cc3cc(C)ccc3C)cc2s1 | 1040 s
CCCN1C(=O)Cc2ccccc2C1C(=O)NCc1ccco1 (stereo unspecified) | 721 s
COc1ccccc1-c1noc(Cn2ncn3nc(-c4ccccc4Cl)cc3c2=O)n1 | 1040 s
Nc1nc(N2CCC3(CC2)OCCO3)ncc1S(=O)(=O)c1ccc(Cl)cc1 | 896 s
Cc1ccn2cc(C(=O)NCc3cc(F)cc(F)c3)nc2c1 | 678 s
O=C(Cn1c(=O)c2cc(-c3ccco3)nn2c2ncccc21)Nc1ccc(F)cc1 | 814 s
Cc1ccc(CNC(=O)Nc2cc3c(cc2N2CCOCC2)n(C)c(=O)n3C)cc1 | 750 s
CCn1c(N2CCN(C(=O)NCc3ccccc3)CC2)nc2ccccc21 | 646 s
Cn1cccc1C(=O)NCCn1c(=O)n(Cc2ccc(F)cc2)c2cccnc21 | 804 s
COc1ccc(Cl)cc1S(=O)(=O)NCCc1c[nH]c2ncccc12 | 654 s
CC(=O)N1CCc2sc(S(=O)(=O)N3CCN(c4ccccc4C)CC3)cc2C1 | 995 s
O=S(=O)(c1cc(F)cc(F)c1)N1CCN(Cc2cccc(F)c2)C2(CCOCC2)C1 | 958 s
CCC(=O)Nc1nnc(SCc2nnc(-c3ccccc3)o2)s1 | 739 s
CCOc1ccc(C(=O)NCc2noc(-c3ccc(OC)cc3)n2)cc1 | 876 s
CC(C)(C)c1csc(-c2csc(S(=O)(=O)NCc3ccc(F)cc3)c2)n1 | 1220 s
CCn1ccc(C(=O)N2CCn3c(nnc3-c3ccccc3)C2)n1 | 604 s

Results, then the compound that gave them:

RP-LC retention time | SMILES
766 s | CCc1nc(-c2csc(S(=O)(=O)N3CCC(C(=O)NC4CC4)CC3)c2)no1
742 s | CCN1CCn2cc(S(=O)(=O)Nc3ccc(F)c(C)c3)cc2C1=O
776 s | COc1ccc(-c2nc(-c3ccc4c(c3)ncn4CCC(=O)N3CCCC3)no2)cc1OC
1030 s | O=C(c1cc(F)ccc1F)N1CCCC1c1nc(-c2ccc(F)cc2)no1 (stereo unspecified)
705 s | Cc1cccc(CC(=O)Nc2c(C(=O)N3CCN(c4ccccn4)CC3)oc3ccccc23)c1
995 s | COC(=O)c1ccc2c(=O)n(CCc3ccccc3)c(N3CCOCC3)nc2c1
838 s | COc1ccc(Cl)cc1NC(=O)CN1C(=O)NC2(CCCCC2C)C1=O (stereo unspecified)
1020 s | CCOc1nc2ccccc2nc1N1CCCC(C(=O)NCc2ccco2)C1 (stereo unspecified)
948 s | COc1ccc(-c2noc(C3CC(=O)N(c4ccc(C)c(F)c4)C3)n2)c(OC)c1 (stereo unspecified)
900 s | Cc1cc(N2CCC(NS(=O)(=O)c3ccccc3F)C2=O)ccc1F (stereo unspecified)
1000 s | O=C(CN1C(=O)COc2ccccc21)N1CCN(c2ccc(-c3noc(C4CCC4)n3)cc2)CC1
869 s | O=C1NC2(CCN(C(=O)c3ccccc3)CC2)N=C1c1cccc(Cl)c1
1040 s | COc1ccc(-c2noc(C3CC(=O)N(c4ccc(Cl)cc4)C3)n2)cc1 (stereo unspecified)
662 s | Cc1ccc2c(=O)c3c([nH]c2c1C)CCN(CC(=O)Nc1ccc(Cl)c(F)c1)C3
862 s | CC(C)NC(=O)N1CCCC(c2cccc(C(=O)NCCN3CCCC3)c2)C1 (stereo unspecified)
592 s | CN1CCCc2cc(C(=O)NCc3cccnc3)sc21
930 s | O=C(C1CCN(c2ncnc3c2oc2ccccc23)CC1)N1CCN(c2cccc(Cl)c2)CC1

RP-LC retention time | SMILES
890 s | Cc1ccccc1CNC(=O)C1(C)CCCN(C(=O)NCc2ccc(F)cc2)C1 (stereo unspecified)
843 s | CC1CC(=O)N(CC(=O)Nc2cccc([N+](=O)[O-])c2)c2ccccc2S1 (stereo unspecified)
741 s | CC(C)c1c(C2CCN(C(=O)NCc3ccccc3)CC2)noc1N
730 s | Cc1nnc2cc(N3CCN(S(=O)(=O)c4cccc(C(F)(F)F)c4)CC3)cnn12
848 s | Cc1cc(C2CCCN2C(=O)Cc2c(F)cccc2Cl)on1 (stereo unspecified)
857 s | O=C(Nc1cccc(Br)c1)C1CCN(C(=O)C2Sc3ccccc3NC2=O)CC1 (stereo unspecified)
659 s | Cc1cc(F)ccc1NC(=O)Cc1nnc(-c2cnccn2)o1
767 s | CS(=O)(=O)N1CCC(C(=O)NCc2cccc(Oc3ccc(F)cc3)c2)CC1
869 s | CCOCCCNC(=O)c1c(-c2cccc(Br)c2)noc1C
840 s | Cc1nc(-c2ccc(C(=O)N3CCC(C)CC3)cc2)no1
1270 s | CCOC(=O)c1cc(C2CC2)nc2c1c(=O)n(Cc1ccc(Br)cc1F)c(=O)n2C
882 s | CN1CCCc2cc(C(=O)NCc3ccccc3)sc21
879 s | Cc1cccc(CNC(=O)C2CCN(C(=O)c3ncn4c3COC(c3ccccc3)C4)CC2)c1 (stereo unspecified)
930 s | O=C(c1n[nH]c2ccccc12)N1CCCC1c1nc(-c2ccc(F)cc2F)no1 (stereo unspecified)
826 s | CC(=O)N1CCc2cc(S(=O)(=O)C(C)CC(=O)N3CCN(c4ccccc4F)CC3)ccc21 (stereo unspecified)
776 s | Cc1cccc(N2CCN(C(=O)c3cn4ccccc4n3)CC2)c1C
